Here are results for 28 molecules from US20250009742A1 (priority 2021, published 2025).

The subject of series [1] is intracellular HBV DNA. The series is described as follows: Real-time PCR for intracellular HBV DNA in HepAD38 cells. In kind it is cell-based. The conditions noted are these: 65 hours treatment. On the procedure:
HepAD38 cells were cultured in DMEM medium (Welgene) supplemented with 200 unit/mL penicillin, 200 μg/mL streptomycin, and 10% FBS. During maintenance and passage, the cells were cultured together with 0.4 μg/mL tetracycline. Two days before the treatment with compounds for inducing HBV replication was started, the medium was replaced with a tetracycline-free complete growth medium. […]
HepAD38 cells were treated with a compound for 65 hours and then recovered, and intracellular HBV DNA was extracted therefrom according to the protocol in the DNeasy Blood & Tissue Kit (Qiagen). The primers and probes used to quantify HBV DNA were 5′-[…]-3′, 5′-[…]-3′, and 5′-/56-FAM/TGT CCT GGT/ZEN/TAT CGC TGG ATG TGT CT/3IABkFQ/-3′. The HBV DNA was amplified by real-time PCR assay using LightCycler 480 (Roche) (J. Virol., 2018, 92(16):e00339-18). All of the processes were confirmed in duplicate.

Series [2] is described as follows: Cell viability assay (EZ-Cytox), cytotoxicity. In kind it is cell-based. The conditions noted are these: human, HepAD38 cells; for viability at 65 h, 100 µM: read-out: Cytotoxicity % Livability (@100 μM). As to the method: HepAD38 cells were cultured for 2 days in Dulbecco's Modified Eagle's medium (Welgene, LM001-05) supplemented with 10% FBS without tetracycline. […] After 65 hours of treatment, viability was measured using EZ-Cytox cell viability assay kit (Daeil Lab Service) according to the manufacturer's instructions. The absorbance was measured at 450 nm using a spectrophotometer (Spark, Tecan).

The mark [3] stands for this setting: Hepatitis B virus, HePAD38, 65 h.

On to `COc1ncc(N(Cc2cc(C(F)(F)F)[nH]n2)C(=O)Nc2nccc(-n3ccnc3)c2F)cn1` [Example 3, 3-(3-fluoro-4-(1H-imidazol-1-yl)pyridin-2-yl)-1-(2-methoxypyrimidin-5-yl)-1-((5-(trifluoromethyl)-1H-pyrazol-3-yl)methyl)urea], for which the IC50 in series [1] (setting [3]) was greater than 1100 nM. Further, in series [2], the CC50 at 65 h was greater than 100000 nM and the viability at 65 h, 100 µM is 74.2%. For `COc1ncc(N(Cc2cc(C(F)(F)F)[nH]n2)C(=O)NC23CC(Cl)(C2)C3)cn1` [Example 6, 3-(3-chlorobicyclo[1.1.1]pentan-1-yl)-1-(2-methoxypyrimidin-5-yl)-1-((5-(trifluoromethyl)-1H-pyrazol-3-yl)methyl)urea], the IC50 in series [1] (setting [3]) is greater than 1100 nM. Further, in series [2], the CC50 at 65 h is greater than 100000 nM and the viability at 65 h, 100 µM is 100%. Turning to `COc1ncc(N(Cc2cc(C(F)(F)F)[nH]n2)C(=O)Nc2ccc(C#N)c(Cl)c2)cn1` [Example 7, 3-(3-chloro-4-cyanophenyl)-1-(2-methoxypyrimidin-5-yl)-1-((5-(trifluoromethyl)-1H-pyrazol-3-yl)methyl)urea], inhibition in series [1] (setting [3]) was half-maximal at 19 nM (IC50). In series [2], the CC50 at 65 h was greater than 100000 nM and the viability at 65 h, 100 µM was 59.3%.

In turn, `COc1ncc(N(Cc2cc(C(F)(F)F)[nH]n2)C(=O)Nc2ccc(Cl)nc2Cl)cn1` [Example 165, 3-(2,6-dichloropyridin-3-yl)-1-(2-methoxypyrimidin-5-yl)-1-((5-(trifluoromethyl)-1H-pyrazol-3-yl)methyl)urea] yielded an IC50 in series [1] (setting [3]) greater than 1100 nM. `COc1ncc(N(Cc2cc(C(F)F)[nH]n2)C(=O)Nc2ccc(Cl)nc2Cl)cn1` [Example 166, 3-(2,6-dichloropyridin-3-yl)-1-((5-(difluoromethyl)-1H-pyrazol-3-yl)methyl)-1-(2-methoxypyrimidin-5-yl)urea] gave an IC50 in series [1] (setting [3]) greater than 1100 nM. In series [1] (setting [3]), `COc1ncc(N(Cc2cc(C(F)(F)F)[nH]n2)C(=O)Nc2ccc(C#N)c(C#N)c2)cn1` [Example 167, 3-(3,4-dicyanophenyl)-1-(2-methoxypyrimidin-5-yl)-1-((5-(trifluoromethyl)-1H-pyrazol-3-yl)methyl)urea] came in with a half-maximal inhibitory concentration (IC50) of 190 nM. The molecule `COc1ncc(N(Cc2cc(C(F)(F)F)[nH]n2)C(=O)Nc2nc(F)ccc2F)cn1` [Example 169, 3-(3,6-difluoropyridin-2-yl)-1-(2-methoxypyrimidin-5-yl)-1-((5-(trifluoromethyl)-1H-pyrazol-3-yl)methyl)urea] yielded an IC50 in series [1] (setting [3]) greater than 1100 nM. On to `COc1ncc(N(Cc2cc(C(F)(F)F)[nH]n2)C(=O)Nc2ccc(F)c(F)n2)cn1` [Example 170, 3-(5,6-difluoropyridin-2-yl)-1-(2-methoxypyrimidin-5-yl)-1-((5-(trifluoromethyl)-1H-pyrazol-3-yl)methyl)urea], for which, in series [1] (setting [3]), the 50% inhibitory concentration (IC50) is 300 nM. Regarding `COc1ncc(N(Cc2cc(C(F)(F)F)[nH]n2)C(=O)Nc2cnc(F)c(F)c2)cn1` [Example 171, 3-(5,6-difluoropyridin-3-yl)-1-(2-methoxypyrimidin-5-yl)-1-((5-(trifluoromethyl)-1H-pyrazol-3-yl)methyl)urea], the IC50 in series [1] (setting [3]) was determined as 280 nM. For `COc1ncc(N(Cc2cc(C(F)(F)F)[nH]n2)C(=O)Nc2ccnc(C(F)F)c2)cn1` [Example 175, 3-(2-(difluoromethyl)pyridin-4-yl)-1-(2-methoxypyrimidin-5-yl)-1-((5-(trifluoromethyl)-1H-pyrazol-3-yl)methyl)urea], the midpoint of inhibition in series [1] (setting [3]), the IC50, lay at 41 nM. `COc1ncc(N(Cc2cc(C(F)(F)F)[nH]n2)C(=O)Nc2cccc(C(F)F)n2)cn1` [Example 177, 3-(6-(difluoromethyl)pyridin-2-yl)-1-(2-methoxypyrimidin-5-yl)-1-((5-(trifluoromethyl)-1H-pyrazol-3-yl)methyl)urea]: the half-inhibitory concentration (IC50) in series [1] (setting [3]) came to 100 nM. In series [1] (setting [3]), `COc1ncc(N(Cc2cc(C(F)(F)F)[nH]n2)C(=O)Nc2cccc(F)n2)cn1` [Example 183, 3-(6-fluoropyridin-2-yl)-1-(2-methoxypyrimidin-5-yl)-1-((5-(trifluoromethyl)-1H-pyrazol-3-yl)methyl)urea] registered an IC50 greater than 1100 nM. The molecule `COc1ncc(N(Cc2cc(C(F)(F)F)[nH]n2)C(=O)NC23CC(F)(C2)C3)cn1` [Example 185, 3-(3-fluorobicyclo[1.1.1]pentan-1-yl)-1-(2-methoxypyrimidin-5-yl)-1-((5-(trifluoromethyl)-1H-pyrazol-3-yl)methyl)urea] had an IC50 in series [1] (setting [3]) greater than 1100 nM. On to `COc1ncc(N(Cc2cc(C(F)F)[nH]n2)C(=O)Nc2ccc(F)c(C(F)F)c2)cn1` [Example 190, 1-((5-(difluoromethyl)-1H-pyrazol-3-yl)methyl)-3-(3-(difluoromethyl)-4-fluorophenyl)-1-(2-methoxypyrimidin-5-yl)urea], for which, in series [1] (setting [3]), the IC50 was 20 nM. In turn, `COc1ccc(N(Cc2cc(C(F)F)[nH]n2)C(=O)Nc2ccc(F)c(C(F)F)c2)cn1` [Example 191, 1-((5-(difluoromethyl)-1H-pyrazol-3-yl)methyl)-3-(3-(difluoromethyl)-4-fluorophenyl)-1-(6-methoxypyridin-3-yl)urea] displayed an IC50 in series [1] (setting [3]) of 24 nM.

As to `COc1ccc(N(Cc2cc(C(F)(F)F)[nH]n2)C(=O)Nc2ccc(F)c(C(F)F)c2)nn1` [Example 200, 3-(3-(difluoromethyl)-4-fluorophenyl)-1-(6-methoxypyridazin-3-yl)-1-((5-(trifluoromethyl)-1H-pyrazol-3-yl)methyl)urea], in series [1] (setting [3]), the IC50 is greater than 1100 nM.

`COc1cc(N(Cc2cc(C(F)(F)F)[nH]n2)C(=O)Nc2ccc(F)c(C(F)F)c2)cnn1` [Example 203, 3-(3-(difluoromethyl)-4-fluorophenyl)-1-(6-methoxypyridazin-4-yl)-1-((5-(trifluoromethyl)-1H-pyrazol-3-yl)methyl)urea] showed an IC50 in series [1] (setting [3]) of 13 nM. The molecule `COc1ncc(N(Cc2cc(C(F)(F)F)[nH]n2)C(=O)Nc2ccc(F)c(C(F)F)n2)cn1` [Example 204, 3-(6-(difluoromethyl)-5-fluoropyridin-2-yl)-1-(2-methoxypyrimidin-5-yl)-1-((5-(trifluoromethyl)-1H-pyrazol-3-yl)methyl)urea] gave an IC50 in series [1] of 36 nM.

`COc1ncc(N(Cc2n[nH]c(C(F)(F)F)c2CC(C)(C)O)C(=O)Nc2ccc(F)c(C(F)F)c2)cn1` [Example 205, 3-(3-(difluoromethyl)-4-fluorophenyl)-1-((4-(2-hydroxy-2-methylpropyl)-5-(trifluoromethyl)-1H-pyrazol-3-yl)methyl)-1-(2-methoxypyrimidin-5-yl)urea] returned an IC50 in series [1] (setting [3]) greater than 1100 nM. The molecule `COc1ncc(N(Cc2n[nH]c(C(F)F)c2CC(C)(C)O)C(=O)Nc2ccc(F)c(C(F)F)c2)cn1` [Example 208, 1-((5-(difluoromethyl)-4-(2-hydroxy-2-methylpropyl)-1H-pyrazol-3-yl)methyl)-3-(3-(difluoromethyl)-4-fluorophenyl)-1-(2-methoxypyrimidin-5-yl)urea] displayed a 50% inhibitory concentration (IC50) in series [1] (setting [3]) greater than 1100 nM. Molecule `COc1ncc(N(Cc2cc(C#N)[nH]n2)C(=O)Nc2ccc(F)c(C(F)F)c2)cn1` [Example 209, 1-((5-cyano-1H-pyrazol-3-yl)methyl)-3-(3-(difluoromethyl)-4-fluorophenyl)-1-(2-methoxypyrimidin-5-yl)urea] showed an IC50 in series [1] (setting [3]) of 16 nM. `COc1ncc(N(Cc2cc(C(F)F)[nH]n2)C(=O)Nc2ccc(F)c(C(F)F)n2)cn1` [Example 210, 1-((5-(difluoromethyl)-1H-pyrazol-3-yl)methyl)-3-(6-(difluoromethyl)-5-fluoropyridin-2-yl)-1-(2-methoxypyrimidin-5-yl)urea]: the IC50 in series [1] was 130 nM. In series [1] (setting [3]), `COc1ncc(N(Cc2cc(C(F)(F)F)[nH]n2)C(=O)Nc2ccnc(C(F)F)c2F)cn1` [Example 211, 3-(2-(difluoromethyl)-3-fluoropyridin-4-yl)-1-(2-methoxypyrimidin-5-yl)-1-((5-(trifluoromethyl)-1H-pyrazol-3-yl)methyl)urea] had an IC50 of 31 nM. The same measure, in the same setting: as for `COc1ncc(NC(=O)N(Cc2cc(C(F)(F)F)[nH]n2)c2cnc(OC)nc2)cn1` [Example 216, 1,3-bis(2-methoxypyrimidin-5-yl)-1-((5-(trifluoromethyl)-1H-pyrazol-3-yl)methyl)urea], the figure is greater than 1100 nM. For the molecule `COc1ncc(N(Cc2cc(C(F)(F)F)[nH]n2)C(=O)NC23CC(C)(C2)C3)cn1` [Example 217, 1-(2-methoxypyrimidin-5-yl)-3-(3-methylbicyclo[1.1.1]pentan-1-yl)-1-((5-(trifluoromethyl)-1H-pyrazol-3-yl)methyl)urea], in series [1] (setting [3]), the IC50 was greater than 1100 nM. On the same count and under the same terms, as for `COc1ncc(N(Cc2cc(C(F)(F)F)[nH]n2)C(=O)Nc2cnc(SC)nc2)cn1` [Example 218, 1-(2-methoxypyrimidin-5-yl)-3-(2-(methylthio)pyrimidin-5-yl)-1-((5-(trifluoromethyl)-1H-pyrazol-3-yl)methyl)urea], the figure is greater than 1100 nM; as for `COc1ncc(N(Cc2cc(C(F)F)[nH]n2)C(=O)Nc2cc(F)c(F)c(F)c2)cn1` [Example 220, 1-((5-(difluoromethyl)-1H-pyrazol-3-yl)methyl)-1-(2-methoxypyrimidin-5-yl)-3-(3,4,5-trifluorophenyl)urea], 48 nM; as for `COc1ncc(N(Cc2cc(C(F)(F)F)[nH]n2)C(=O)Nc2nc(F)c(F)cc2F)cn1` [Example 221, 1-(2-methoxypyrimidin-5-yl)-1-((5-(trifluoromethyl)-1H-pyrazol-3-yl)methyl)-3-(3,5,6-trifluoropyridin-2-yl)urea], greater than 1100 nM.
